From patent US20050106305A1, “Beverage compositions comprising monatin and methods of making same” (Cargill, Inc., priority 2003, published 2005)
Each block holds one compound with its values, some of them ahead of it. Where a SMILES comes first, the peptide text is derived from it.

Legend:
[1] = Equisweet blends of monatin with carbohydrate sweeteners (parity to 10.0% sucrose); format: in vivo; settings: for Effective Relative Sweetness Intensity (x sucrose) of Monatin: blend with sucrose equisweet to 10.0% sucrose
Experimental: Blends of monatin (as described in Example 14) with sucrose, HFCS (55% fructose), and glucose syrup (63 dextrose equivalents, DE) equisweet to 10.0% (w/v) sucrose were prepared. For each carbohydrate sweetener, the monatin:sweetener ratio was adjusted so that monatin delivered 25, 50, and 75% of the total sweetness. Sweetness parity to 10.0% (w/v) sucrose was determined using the sweetness estimation method described in Example 14. As in Example 14, all assessments were carried out in the pH 3.2 model soft drink system, using 6-8 panelists, each tasting in duplicate. Results are presented as Tables 7-9.

[2] = Quantitative synergy of monatin with other sweeteners; format: in vivo
[3] = Sweetness dose response of monatin and saccharin, model system pH 3.2; format: in vivo
Experimental: Sweetness of monatin and saccharin was assessed using 20 trained sensory evaluators, making judgements in duplicate. Test and reference solutions were prepared in citric/citrate buffer at pH 3.2. […] The plateau above 10% SEV indicates absence/low levels of “mixture-suppressing” off-tastes and aftertastes. The shape of monatin's dose-response curve is similar to those of aspartame, sucralose and alitame, all of which are “quality” sweeteners.

[4] = Stability of monatin at 80° C. and neutral pH, LC-MS; format: physicochemical; settings: 75 ppm
Experimental: A 100 milliliter solution of 75 ppm monatin at pH 7 was used as a stock solution. The synthetic monatin sample contained approximately 96% of the 2R,4R/2S,4S enantiomeric pair and 4% of the 2R,4S/2S,4R enantiomeric pair. Samples were incubated at 80° C. and pH 7 for the duration of the experiment and samples were withdrawn at 0, 1, 2, 3, 4 hours and 1, 2, 4, 7, 14, 21 and 35 days. All experimental conditions were run in duplicate.
Separation and Quantification Using LC-MS Using Reverse Phase Chromatography—A response curve was established for both detected diastereomer peaks of the synthetic monatin. A range of 5-150 ppm was bracketed with the synthetic monatin standard dissolved in DI water. Separation of the two diastereomer peaks was accomplished using a 3.9×150 mm Novapak C18 (Waters Corporation) HPLC column. Ultraviolet-Visible (UV) and Mass Spectrometer (MS) detectors were used in series for detection and quantitation. Monatin and its lactone peak each have a UVmax at 279 nm that aided in precise detection. Quantification was done by acquiring Selected Ion Monitoring (SIM) scan of 293.3 m/z and 275.3 m/z in positive-ion electrospray mode.

[5] = Time intensity profile in a soft drink system; format: in vivo; settings: 80 ppm monatin, 10.0% sucrose, 200 ppm sucralose, pH 3.2 model soft drink
Experimental: Solutions of 80 ppm monatin (racemic mix of monatin described in Example 14), 10.0% (w/v) sucrose and 200 ppm sucralose were prepared in the pH 3.2 model soft drink system described in Example 14. The time intensity profile of these solutions then was assessed using the following procedure. Six panelists were included in the study. These panelists were screened for their general sensory acuity and selected for their sensitivity to sweetness intensity and sweetness quality differences. All were experienced in methods of sweetener assessment and had received special training in time intensity evaluations. Training sessions were carried out initially to familiarize the panel with the method of evaluation and scoring the samples over time using a computerized data entry system.
Samples of each solution (13 mL) were coded and presented individually to panelists, in random order. For each panelist, immediately after swallowing, the computer recorded timed intensity readings on the scale of 0-100 each second, up to 60 seconds. Each solution was evaluated in duplicate.

[6] = Stability of monatin at pH 3 with increasing temperatures; format: physicochemical
Experimental: A sample of synthetic monatin was subjected to pH 3 at temperatures of 25° C., 50° C. and 100° C. At room temperature and pH 3, a 14% loss in monatin was observed over a period of 48 hours. This loss was attributed to lactone formation. At 50° C. and pH 3, a 23% loss in monatin was observed over a period of 48 hours. This loss was attributed to lactone formation and the buildup of an unknown compound after about 15.5 minutes. […] The major detectable component was an unknown at 15.5 minutes.

[7] = Sensory stability of monatin in water; format: physicochemical
Experimental: The sensory stability of monatin (racemic mix described in Example 14) in water (8% SEV) was studied after storage at room temperature for 0 to 6 hours. The SEV was monitored (as described above in Example 14) at either 0-1 hours or 5-6 hours after preparing a monatin solution.

[8] = Sensory evaluation of sweeteners in coffee and iced tea; format: in vivo; settings: Coffee, 200 mL serving; aspartame 250 ppm, sucralose 82 ppm, R,R monatin 25 ppm + maltodextrin or erythritol (1 g, 0.5%)
Experimental: Monatin sweetener formulations, comprising R,R monatin or R,R monatin/erythritol combinations, were assessed relative to other known sweeteners (aspartame and sucralose) in coffee and iced tea. The key sensory parameters assessed included sweetness quality, aftertaste, bitter taste and its aftertaste. Qualitative evaluation was carried out.
Standard coffee was used in which to evaluate sweetener performance (Table 17).
Sweeteners were added to coffee at the following concentrations:
An ice tea formulation was developed to evaluate sweetener performance (Table 18).
Sweeteners were added to tea at the following concentrations:
The evaluation of these coffee and tea drinks was carried out by a panel (n=6) of experienced sensory evaluators who evaluated the coffee products on one tasting occasion and the tea products on a subsequent occasion.

[9] = sole sweetener in the model system (pH 3.2)

change in concentration of monatin or lactones thereof ([4]; 80° C. and pH 7, up to 35 days): no change in concentration | degree of degradation of monatin ([4]; 80° C., pH 7, after 7-35 days): insignificant | loss in monatin ([6]; 50° C. and pH 3, over 48 hours): 23% | loss in monatin ([6]; 100° C. and pH 3, after 24 hours): nearly all monatin was lost | loss in monatin ([6]; room temperature (25° C.) and pH 3, over 48 hours): 14% | loss of monatin SEV ([7]; 8% SEV, after 6 hours in room temperature): no detectable loss | lactonization (LC/MS) ([7]; room temperature, 0 to 6 hours): no lactonization
SMILES: NC(CC(O)(Cc1c[nH]c2ccccc12)C(=O)O)C(=O)O (racemic) [Monatin, 2-hydroxy-2-(indol-3-ylmethyl)-4-aminoglutaric acid]
Effective Relative Sweetness Intensity (x sucrose) of Monatin ([1]; sweetness contribution of monatin 25%, sucrose 7.5%, monatin 12.3 ppm): 2000 x sucrose | Effective Relative Sweetness Intensity (x sucrose) of Monatin ([1]; sweetness contribution of monatin 50%, sucrose 5.0%, monatin 30.8 ppm): 1600 x sucrose | Effective Relative Sweetness Intensity (x sucrose) of Monatin ([1]; sweetness contribution of monatin 75%, sucrose 2.5%, monatin 50.3 ppm): 1500 x sucrose | sweetness intensity when blended with carbohydrate sweeteners ([1]; blended with carbohydrate sweeteners): 1500-2000 × sucrose | quantitative synergy with aspartame, saccharin, acesulfame-K, sucralose, or carbohydrate sweeteners ([2]; blends): no significant quantitative synergy | quantitative synergy with cyclamates ([2]; blends with cyclamates): quantitatively synergistic | Aftertaste [3, 9]: slight “aspartame-like” aftertaste | sweet taste decay [3, 9]: quite rapid | sweet taste onset [3, 9]: slight delay | cooling sensation ([3]; sole sweetener, un-flavored systems (pH 3.2)): residual cooling sensation | Area Under Curve [5]: 117.3 unit × s | Rate of Decline [5]: 2.2 unit/s | Rate of Onset [5]: 14.9 unit/s | Time for Sweetness to Decline to Half Maximum Value [5]: 34.2 s | Time to Half Maximum Sweetness [5]: 2.4 s | Time to Maximum Sweetness [5]: 9.0 s | Intensity of Maximum Sweetness ([5]; scale 0-100): 66.6 unit

SMILES: COC(=O)[C@H](Cc1ccccc1)NC(=O)[C@@H](N)CC(=O)O [Aspartame, aspartame] (H-Asp-Phe-OMe)
Comments (sensory evaluation) [8]: Balanced sweetness profile. Very low level
